Among the data in ChEMBL document CHEMBL3875157, “Neurodegenerative diseases linked to misfolded proteins and their therapeutic approaches: A review” (Eur J Med Chem, 2016) are IC50 values, retold here.

This assay addresses Acetylcholinesterase (Homo sapiens, UniProt P22303). Kind of assay: Inhibition of acetylcholinesterase (unknown origin).

Molecules are shown by their SMILES.

Chain of Acetylcholinesterase (P22303 whole entry): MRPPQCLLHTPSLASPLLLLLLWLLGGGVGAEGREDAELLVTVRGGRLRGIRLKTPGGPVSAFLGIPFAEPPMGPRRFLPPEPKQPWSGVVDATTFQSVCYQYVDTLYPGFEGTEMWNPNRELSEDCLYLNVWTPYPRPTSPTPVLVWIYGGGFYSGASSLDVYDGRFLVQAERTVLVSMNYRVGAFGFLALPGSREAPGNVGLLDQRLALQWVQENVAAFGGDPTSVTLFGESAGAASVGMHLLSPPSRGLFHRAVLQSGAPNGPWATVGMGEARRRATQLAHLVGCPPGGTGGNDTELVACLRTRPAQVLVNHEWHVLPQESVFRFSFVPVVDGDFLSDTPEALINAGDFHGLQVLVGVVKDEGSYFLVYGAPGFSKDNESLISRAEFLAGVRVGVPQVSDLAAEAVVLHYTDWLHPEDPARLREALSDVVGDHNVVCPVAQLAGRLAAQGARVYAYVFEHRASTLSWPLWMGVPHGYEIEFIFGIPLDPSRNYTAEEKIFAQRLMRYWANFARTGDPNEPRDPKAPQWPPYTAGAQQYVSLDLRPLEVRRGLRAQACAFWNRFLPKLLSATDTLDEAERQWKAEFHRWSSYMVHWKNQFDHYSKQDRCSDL

`CCOC(=O)C1=C(C)Oc2nc3c(c(N)c2C1c1ccc(OC)cc1)CCCC3` (stereo unspecified): the 50% inhibitory concentration (IC50) lay within 0.182 to 0.868 µM.

Broadly, the IC50 is the concentration needed to halve the response being measured.
